The values below come from patent US20230077362A1 (CORTEVA AGRISCIENCE LLC, priority 2019, published 2023).

Assay type in all cases: in vivo
Assay [1] relates to Green Peach Aphid ("GPA") (Myzus persicae), wingless adult and nymph stages. The assay can be described thus: Bioassay on green peach aphid (GPA), foliar spray on infested cabbage seedlings. Conditions: Myzus persicae, foliar, 72 h. In outline:
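Cabbage seedlings with 2-3 true leaves, infested one day earlier with 20-50 wingless adult and nymph GPA, sprayed to runoff on both leaf sides; solvent check held 20% acetone/methanol (1:1). Live aphids counted after three days at about 25° C; corrected % control = 100*(X−Y)/X versus solvent check.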

Assay [2] concerns Cabbage Looper (Trichoplusia ni) ("CL"), second instar larvae. Description: Bioassay on cabbage looper (CL), 128-well diet tray assay. The conditions noted are these: Trichoplusia ni. In outline:
(§1)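 After sealing with a clear self-adhesive lid, the trays are incubated at 25° C. with 14 h light and 10 h dark for 5 to 7 days; mortality in each well is recorded as a percentage and averaged across the eight wells.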

The test system of assay [3] is Diamondback Moth (Plutella xylostella) ("DBM"). Description: Bioassay on Diamondback Moth (DBM), Example D, procedure of Example A. Conditions: 0.00005 ppm, read-out: DBM % Control (or Mortality) Rating. The method, then:
(§2) Example D: Bioassays on Cabbage Looper (Trichoplusia ni) (“CL”) and Diamondback Moth (Plutella xylostella) (“DBM”)
(§3) Certain molecules disclosed in this document were tested against CL and DBM (diamondback moth, Plutella xylostella) using procedures described above for BAW and CL (Example A). The results are reported as in the “CL & DBM Rating Table” at concentrations of 0.0005 and 0.00005 ppm, respectively, and are given Table D.

The test system of assay [4] is Beet Armyworm (Spodoptera exigua) ("BAW"), second instar larvae. The assay can be described thus: Bioassay on beet armyworm (BAW), 128-well diet tray assay. The conditions noted are these: Spodoptera exigua. In outline: as §1
Assay [5] concerns Cabbage Looper (Trichoplusia ni) ("CL"). Description: Bioassay on Cabbage Looper (CL), Example D, procedure of Example A. The conditions noted are these: read-out: CL % Control (or Mortality) Rating. On the procedure: as §2, §3
Assay [6] concerns Yellow Fever Mosquito "YFM" (Aedes aegypti), about 1 day-old larvae. Description: Bioassay on yellow fever mosquito (YFM), 96-well plate larval assay. Conditions: for YFM rating: Table ABC, species YFM, mortality scored after 3 days, C = not tested, D = no activity noticed. The method, then:
Example C: Bioassays on Yellow Fever Mosquito “YFM” (Aedes aegypti)
Certain molecules disclosed in this document were tested against YFM using procedures described in the following paragraph. In the reporting of the results, the “YFM Rating Table” was used (See Table Section).
Master plates containing 400 μg of a molecule dissolved in 100 μL of dimethyl sulfoxide (DMSO) (equivalent to a 4000 ppm solution) are used. A master plate of assembled molecules contains 15 μL per well. To this plate, 135 μL of a 90:10 water:acetone mixture is added to each well. A robot (Biomek® NXP Laboratory Automation Workstation) is programmed to dispense 15 μL aspirations from the master plate into an empty 96-well shallow plate (“daughter” plate). There are 6 reps (“daughter” plates) created per master. The created daughter plates are then immediately infested with YFM larvae.
The day before plates are to be treated, mosquito eggs are placed in Millipore water containing liver powder to begin hatching (4 g. into 400 mL). After the daughter plates are created using the robot, they are infested with 220 μL of the liver powder/larval mosquito mixture (about 1 day-old larvae). After plates are infested with mosquito larvae, a non-evaporative lid is used to cover the plate to reduce drying. Plates are held at room temperature for 3 days prior to grading. After 3 days, each well is observed and scored based on mortality.

[7] abbreviates: read-out: GPA (Biological Results, rating).
The mark [8] stands for this setting: read-out: CL (Biological Results, rating).
[9] abbreviates: read-out: BAW (Biological Results, rating).

Where two headings read alike, the source gives them in different places.

In the case of `Cc1ccc(C)c(N2C(=O)CS/C2=N\C(=O)Nc2ccc(-c3ncn(-c4ccc(OC(F)(F)F)cc4)n3)cc2)c1` [Compound C2], the pest or weed control at 200 µg/mL in assay [1] (setting [7]) is 0 to 80%. Besides, the pest or weed control at 50 µg/cm2 in assay [2] (setting [8]) and in assay [4] (setting [9]) was 50 to 100% throughout. For the same compound, the mortality (usually the share of the test organisms that died) at 5e-05 ppm in assay [3] lay within 0 to 15%. Moreover, the mortality at 0.0005 ppm in assay [5] is 0 to 15%.
As to `Cc1ccc(C(F)(F)F)c(N2C(=O)CS/C2=N\C(=O)NCCc2ccc(-c3ncn(-c4ccc(OC(F)(F)F)cc4)n3)cc2)c1` [Compound H1], the “YFM (Biological Results, rating)” value in assay [6] (Yellow Fever Mosquito (Aedes aegypti) larvae, scored on mortality after 3 days, C = Not Tested) is reported as “A (80-100)”. Besides, in assay [1] (setting [7]), the pest or weed control at 200 µg/mL was 0 to 80%. Moreover, the pest or weed control at 50 µg/cm2 in assay [2] (setting [8]) and in assay [4] (setting [9]) was 50 to 100% throughout. Besides, the mortality at 5e-05 ppm in assay [3] is 16 to 50%. For the same compound, in assay [5], the mortality at 0.0005 ppm was 16 to 50%.
For the compound `Cc1ccc(C(F)(F)F)c(N2C(=O)CS/C2=N\C(=O)NCC(F)c2ccc(-c3ncn(-c4ccc(OC(F)(F)F)cc4)n3)cc2)c1` (centres unmarked) [Compound H2], the pest or weed control at 200 µg/mL in assay [1] (setting [7]) was 80 to 100%. Besides, the pest or weed control at 50 µg/cm2 in assay [2] (setting [8]) and in assay [4] (setting [9]) was 50 to 100% throughout. In addition, in assay [3], the mortality at 5e-05 ppm was 51 to 100%. The mortality at 0.0005 ppm in assay [5] lay in the range of 51 to 100%.
Consider `Cc1ccc(C(F)(F)F)c(N2C(=O)CS/C2=N\C(=O)Nc2ccc(-c3ncn(-c4ccc(OC(F)(F)F)cc4)n3)cc2)c1` [Compound H20], for which, in assay [1] (setting [7]), the pest or weed control at 200 µg/mL fell in the range of 0 to 80%. Further, the pest or weed control at 50 µg/cm2 in assay [2] (setting [8]) and in assay [4] (setting [9]) was 50 to 100% throughout. For the same compound, in assay [3], the mortality at 5e-05 ppm was in the range of 51 to 100%. In assay [5], the mortality at 0.0005 ppm was in the range of 16 to 50%.
In the case of `Cc1cc(-c2ncn(-c3ccc(OC(F)(F)F)cc3)n2)ccc1NC(=O)/N=C1\SCC(=O)N1c1ccccc1COCC(F)(F)F` [Compound J653, (Z)-1-(2-Methyl-4-(1-(4-(trifluoromethoxy)phenyl)-1H-1,2,4-triazol-3-yl)phenyl)-3-(4-oxo-3-(2-((2,2,2-trifluoroethoxy)methyl)phenyl)thiazolidin-2-ylidene)urea], the YFM rating result in assay [6] is “A (80-100)”. Moreover, the pest or weed control at 200 µg/mL in assay [1] (read-out: GPA rating) is 0 to 80%. For the same compound, the pest or weed control at 50 µg/cm2 in assay [2] (read-out: CL rating) and in assay [4] (read-out: BAW rating) was 50 to 100% in each case.
In the case of `O=C(/N=C1\SCC(=O)N1c1cc(Cl)ccc1COCc1ccccc1)Nc1ccc(-c2ncn(-c3ccc(OC(F)(F)F)cc3)n2)cc1F` [Compound J719, (Z)-1-(3-(2-((Benzyloxy)methyl)-5-chlorophenyl)-4-oxothiazolidin-2-ylidene)-3-(2-fluoro-4-(1-(4-(trifluoromethoxy)phenyl)-1H-1,2,4-triazol-3-yl)phenyl)urea], in assay [6], the YFM rating result is given as “A (80-100)”. In addition, the pest or weed control at 200 µg/mL in assay [1] (read-out: GPA rating) fell in the range of 0 to 80%. For the same compound, the pest or weed control at 50 µg/cm2 in assay [2] (read-out: CL rating) and in assay [4] (read-out: BAW rating) was 50 to 100% each time.
Take `O=C(/N=C1\SCC(=O)N1c1ccccc1COCc1ccccc1)Nc1ccc(-c2ncn(-c3ccc(OC(F)(F)F)cc3)n2)cc1F` [Compound J742, (Z)-1-(3-(2-((Benzyloxy)methyl)phenyl)-4-oxothiazolidin-2-ylidene)-3-(2-fluoro-4-(1-(4-(trifluoromethoxy)phenyl)-1H-1,2,4-triazol-3-yl)phenyl)urea]: the YFM rating result in assay [6] was “A (80-100)”. For the same compound, the pest or weed control at 200 µg/mL in assay [1] (read-out: GPA rating) was in the range of 0 to 80%. The pest or weed control at 50 µg/cm2 in assay [2] (read-out: CL rating) and in assay [4] (read-out: BAW rating) was 50 to 100% throughout.
As for `Cc1ccc(COCc2ccccc2)c(N2C(=O)CS/C2=N\C(=O)Nc2ccc(-c3ncn(-c4ccc(C(F)(F)F)cc4)n3)cc2F)c1` [Compound J747, (Z)-1-(3-(2-((Benzyloxy)methyl)-5-methylphenyl)-4-oxothiazolidin-2-ylidene)-3-(2-fluoro-4-(1-(4-(trifluoromethyl)phenyl)-1H-1,2,4-triazol-3-yl)phenyl)urea], in assay [6], the YFM rating result is “A (80-100)”. For the same compound, in assay [1] (read-out: GPA rating), the pest or weed control at 200 µg/mL was in the range of 0 to 80%. The pest or weed control at 50 µg/cm2 in assay [2] (read-out: CL rating) and in assay [4] (read-out: BAW rating) was 50 to 100% throughout.
As for `Cc1ccc(COCC(F)(F)F)c(N2C(=O)CS/C2=N\C(=O)Nc2ccc(-c3ncn(-c4ccn(CC(F)(F)F)c(=O)c4)n3)cc2F)c1` [Compound J751, (Z)-1-(2-Fluoro-4-(1-(2-oxo-1-(2,2,2-trifluoroethyl)-1,2-dihydropyridin-4-yl)-1H-1,2,4-triazol-3-yl)phenyl)-3-(3-(5-methyl-2-((2,2,2-trifluoroethoxy)methyl)phenyl)-4-oxothiazolidin-2-ylidene)urea], the YFM rating entry in assay [6] is reported as “A (80-100)”. Further, the pest or weed control at 200 µg/mL in assay [1] (read-out: GPA rating) fell in the range of 0 to 80%. In addition, the pest or weed control at 50 µg/cm2 in assay [2] (read-out: CL rating) and in assay [4] (read-out: BAW rating) was 50 to 100% each time.
